Experimental findings from ChEMBL document CHEMBL3046962, “Synthesis of new olefin chalcone derivatives as antitumor, antioxidant and antimicrobial agents” (Med Chem Res, 2012) are described below.

Data set [1] is described as follows: Antioxidant activity assessed as hydroxyl radical scavenging activity at 100 ug after 5 min by UV-Visible spectrophotometry. The class given is functional.
Data set [2] relates to Radical scavenging activity. Description: Antioxidant activity assessed as DPPH radical scavenging activity at 100 ug after 20 min by UV-Visible spectrophotometry. The class given is functional.
Data set [3] in a line: Cytotoxicity against Homo sapiens (human) PN-5C-12 at 100 ug after 72 hr by MTT assay. The following applies: in vitro. Background: Formazan colour is commonly taken as a measure of viable cells.
The nature of data set [4]: Cytotoxicity against Homo sapiens (human) HL60-P58 at 100 ug after 72 hr by MTT assay. The class given is functional.
Data set [5] is described as follows: Cytotoxicity against Homo sapiens (human) HeLa-B75 at 100 ug after 72 hr by MTT assay. Format: functional.
Data set [6] is described as follows: Cytotoxicity against Homo sapiens (human) Hep-3BPN7 at 100 ug after 72 hr by MTT assay. The class given is functional.
The subject of a further data set is Staphylococcus aureus. Nature of the data set: Antimicrobial activity against Staphylococcus aureus MTCC 96 at 100 ug after 24 hr by agar disk diffusion method. Format: functional. To be noted: MTCC 96, 24 h, read-out: DIZ. On the technique in general: In agar diffusion tests the substance spreads into inoculated agar from a disc or well.
For a further data set, the system named is Proteus vulgaris. Description: Antimicrobial activity against Proteus vulgaris MTCC 1751 at 100 ug after 24 hr by agar disk diffusion method. Format: functional. To be noted: MTCC 1751, 24 h, read-out: DIZ.
The test system of another data set is Escherichia coli. Nature of the data set: Antimicrobial activity against Escherichia coli DH5[alpha] at 100 ug after 24 hr by agar disk diffusion method. Format: functional. The following applies: read-out: DIZ.
Data set [7] can be described thus: Antioxidant activity assessed as ferric reducing activity at 100 ug after 20 min by UV-Visible spectrophotometry. More on the design: scale not given: the % may be the effect or the level left.
For another data set, the system named is Candida albicans. Nature of the data set: Antimicrobial activity against Candida albicans MTCC 3017 at 100 ug after 48 hr by agar disk diffusion method. Format: functional. The following applies: MTCC 3017, 48 h, read-out: DIZ.

For `COc1ccc(C(=O)/C=C/c2c(OC)cc(OC)c(C3=CCN(C)CC3)c2OC)c(OC)c1`, the Activity worked out at 59% in [1]; 60.6% in data set [2]; 47.82% in data set [3]; 78.48% in [4]; 83.4% in data set [5]; 77% in data set [6]. For the same molecule, in data set [7], the Activity came out at 53.1%. Besides, the values for the zone of inhibition at 100 µg/disc in the data set with Staphylococcus aureus, in the data set with Proteus vulgaris and with Escherichia coli were 2.5 mm, 3.5 mm and 3.15 mm, respectively.
In the case of `COc1cc(OC)c(C2=CCN(C)CC2)c(OC)c1/C=C/C(=O)c1ccc(C)cc1`, the Activity in data set [1] was 59.8%; in data set [2], 58.5%; in data set [3] it was 44.26%; in [4], 69.49%; in data set [5], 82.23%; in data set [6], 72.53%. The Activity in [7] worked out at 68.1%. Further, the zone of inhibition at 100 µg/disc amounted to 0.1 mm in the data set with Candida albicans, 5 mm in the data set on Staphylococcus aureus, 10.2 mm in the data set on Proteus vulgaris and 2.5 mm in the data set with Escherichia coli.
`CN(Cc1cnc2nc(N)nc(N)c2n1)c1ccc(C(=O)N[C@@H](CCC(=O)O)C(=O)O)cc1` [METHOTREXATE]: the Activity in [3] was found to be 53.85%; in data set [4], 54.08%; in [5], 78.66%; in data set [6] it was 64.6%.
As to `COc1cc(O)c(C(=O)/C=C/c2c(OC)cc(OC)c(C3=CCN(C)CC3)c2OC)c(OC)c1`, the Activity in data set [1] stood at 51.1%; in data set [2] it was 57.3%; in data set [3], 44.13%; in data set [4] it was 64.2%; in [5], 79.69%; in data set [6] it was 71.4%. Moreover, in data set [7], the Activity is 69.3%. In addition, the zone of inhibition at 100 µg/disc in the data set on Staphylococcus aureus was 1.5 mm; in the data set with Proteus vulgaris it was 9.5 mm; with Escherichia coli it was 2 mm.
For the molecule `COc1cc(OC)c(C2=CCN(C)CC2)c(OC)c1/C=C/C(=O)c1ccc([N+](=O)[O-])cc1`, the Activity in data set [1] was found to be 51.5%; in [2], 25%; in [3], 70.09%; in [4] it was 65.88%; in data set [5] it was 83.67%; in [6], 80.13%. Also, in data set [7], the Activity stood at 46.3%. The zone of inhibition at 100 µg/disc was 2 mm with Candida albicans, 5 mm in the data set on Staphylococcus aureus, 4 mm in the data set on Proteus vulgaris and 2 mm in the data set on Escherichia coli.
Regarding `COc1cc(OC)c(C2=CCN(C)CC2)c(OC)c1/C=C/C(=O)c1ccc(F)c(F)c1`, the Activity in data set [1] is 52.2%; in [2] it was 58.8%; in data set [3], 65.48%; in data set [4], 70.5%; in data set [5], 82.85%; in data set [6], 76.93%. Besides, in [7], the Activity is 43.9%. Also, the zone of inhibition at 100 µg/disc in the data set on Candida albicans is 1.1 mm; in the data set with Staphylococcus aureus, 2.5 mm; in the data set on Proteus vulgaris it was 4 mm; in the data set with Escherichia coli it was 2 mm.
With `COc1cc(OC)c(C2=CCN(C)CC2)c(OC)c1/C=C/C(=O)c1ccc(Cl)cc1Cl`, the Activity is 48.1% in data set [1]; 56.7% in data set [2]; 50.98% in data set [3]; 58.99% in data set [4]; 79.42% in [5]; 71.26% in data set [6]. Also, in [7], the Activity amounted to 63.6%. In addition, the zone of inhibition at 100 µg/disc in the data set on Candida albicans is 1.1 mm; in the data set with Staphylococcus aureus, 1.1 mm; with Proteus vulgaris it was 5.5 mm; with Escherichia coli, 2.5 mm.
Turning to `COc1cc(OC)c(C2=CCN(C)CC2)c(OC)c1/C=C/C(=O)c1cc(Cl)ccc1Cl`, the Activity stood at 48.5% in data set [1]; 55.4% in data set [2]; 60.47% in data set [3]; 65.63% in [4]; 79.97% in data set [5]; 70.8% in data set [6]. The Activity in data set [7] is 62.4%. In addition, the zone of inhibition at 100 µg/disc turned out to be 1.5 mm in the data set with Candida albicans, 1.5 mm in the data set on Staphylococcus aureus, 6.5 mm in the data set with Proteus vulgaris and 1.5 mm with Escherichia coli.
With `COc1ccc(C(=O)/C=C/c2c(OC)cc(OC)c(C3=CCN(C)CC3)c2OC)cc1OC`, the Activity in data set [1] was found to be 35%; in data set [2], 22.3%; in [3], 65.21%; in data set [4], 62.77%; in data set [5] it was 84.84%; in data set [6], 79.46%. The Activity in data set [7] amounted to 50.7%. For the same molecule, the zone of inhibition at 100 µg/disc in the data set with Candida albicans was found to be 1.5 mm; with Staphylococcus aureus, 0.5 mm; in the data set with Proteus vulgaris, 5.5 mm; in the data set with Escherichia coli it was 2 mm.
Take `COc1ccc(OC)c(C(=O)/C=C/c2c(OC)cc(OC)c(C3=CCN(C)CC3)c2OC)c1`: the Activity in [1] worked out at 54.9%; in data set [2], 57.7%; in data set [3], 41.1%; in [4], 66.3%; in data set [5], 82.09%; in data set [6] it was 73.4%. Besides, in data set [7], the Activity is 66.5%. Also, the zone of inhibition at 100 µg/disc in the data set on Staphylococcus aureus worked out at 5 mm; with Proteus vulgaris, 5 mm; in the data set with Escherichia coli, 2.5 mm.
As for `COc1ccccc1C(=O)/C=C/c1c(OC)cc(OC)c(C2=CCN(C)CC2)c1OC`, the Activity worked out at 59.8% in data set [1]; 60% in [2]; 46.77% in data set [3]; 68.4% in data set [4]; 81.13% in data set [5]; 71.33% in [6]. Also, in data set [7], the Activity came out at 60.8%. Further, the zone of inhibition at 100 µg/disc in the data set with Staphylococcus aureus was 2.5 mm; with Proteus vulgaris, 3 mm; in the data set on Escherichia coli it was 3.5 mm.
On to `COc1cc(OC)c(C2=CCN(C)CC2)c(OC)c1/C=C/C(=O)c1ccc[nH]1`, for which the Activity in data set [1] stood at 63.1%; in data set [2] it was 68.7%; in [3] it was 57.57%; in [4] it was 66.55%; in data set [5], 77.77%; in data set [6] it was 80.13%. Also, the Activity in data set [7] was determined as 61.2%. Also, the zone of inhibition at 100 µg/disc with Candida albicans was found to be 1.5 mm; in the data set on Staphylococcus aureus, 1.1 mm; in the data set on Proteus vulgaris, 3 mm; with Escherichia coli, 6.25 mm.
Turning to `COc1cc(OC)c(C2=CCN(C)CC2)c(OC)c1/C=C/C(=O)c1ccc(F)cc1`, the Activity stood at 38.7% in data set [1]; 22.9% in data set [2]; 69.43% in data set [3]; 62.18% in data set [4]; 85.04% in data set [5]; 79.86% in data set [6]. In addition, the Activity in [7] was determined as 48.3%. The zone of inhibition at 100 µg/disc in the data set on Candida albicans is 3.5 mm; in the data set with Staphylococcus aureus it was 2 mm; in the data set with Proteus vulgaris it was 7.5 mm; with Escherichia coli, 4.5 mm.
In the case of `COc1ccc(C(=O)/C=C/c2c(OC)cc(OC)c(C3=CCN(C)CC3)c2OC)cc1`, the Activity stood at 57.9% in data set [1]; 55.6% in data set [2]; 46.11% in data set [3]; 56.97% in data set [4]; 80.86% in data set [5]; 72.33% in data set [6]. In addition, in [7], the Activity was 67.7%. In addition, the zone of inhibition at 100 µg/disc was 2.5 mm in the data set with Staphylococcus aureus, 7 mm in the data set with Proteus vulgaris and 3.5 mm in the data set on Escherichia coli.
With `COc1cc(OC)c(C2=CCN(C)CC2)c(OC)c1/C=C/C(=O)c1ccc(Br)cc1`, the Activity in [1] worked out at 44.4%; in data set [2], 23.3%; in data set [3] it was 66.4%; in data set [4], 62.68%; in [5], 84.84%; in data set [6] it was 78.93%. Besides, the Activity in data set [7] is 50.3%. Besides, the zone of inhibition at 100 µg/disc in the data set with Candida albicans is 0.5 mm; in the data set with Staphylococcus aureus, 0.5 mm; in the data set with Escherichia coli, 2 mm.
As to `COc1cc(OC)c(C2=CCN(C)CC2)c(OC)c1/C=C/C(=O)c1ccc(Cl)cc1`, the Activity in [1] was 16.9%; in data set [2] it was 20.4%; in [3], 67.98%; in data set [4], 65.04%; in [5], 83.74%; in data set [6], 77.4%. Moreover, the Activity in [7] is 41.9%. The zone of inhibition at 100 µg/disc in the data set on Staphylococcus aureus amounted to 2.5 mm; in the data set on Proteus vulgaris, 3 mm; in the data set with Escherichia coli, 3 mm.
Consider `COc1cc(OC)c(C(=O)/C=C/c2c(OC)cc(OC)c(C3=CCN(C)CC3)c2OC)c(OC)c1`, for which the Activity turned out to be 46.6% in data set [1]; 56.1% in [2]; 59.81% in data set [3]; 65.04% in data set [4]; 78.73% in data set [5]; 70.53% in [6]. Further, in data set [7], the Activity turned out to be 58.8%. The zone of inhibition at 100 µg/disc in the data set on Staphylococcus aureus, in the data set with Proteus vulgaris and in the data set on Escherichia coli was 3.5 mm throughout.
